In patent US20020086278A1, “CHROMOGENIC MEDIA CONTAINING BLOOD OR HEMIN” (priority 1999, published 2002):
Several values for one entry are separate records, joined by “and”; a condition that tells them apart may be missing. Equal values may be shown once. Where a name gives a salt, the structure may show the parent alone.

Assays:
Escherichia coli 25922 = test: Example 1: growth and colony color on plates surface-spread with chromogen; format: cell-based; conditions: E. coli 25922
[1] = system: Streptococcus pneumoniae 6303; test: as above; format: cell-based
[2] = system: Branhamella catarrhalis 25238; test: as above; format: cell-based
[3] = system: Gardnerella vaginalis 14019; test: as above; format: cell-based; conditions: Summary of Table I; G. vaginalis 14014
E. coli 25922 = test: Example 2: effect of incubation conditions on colony color formation; format: cell-based, Escherichia coli
S. agalactiae 12386 = test: as above; format: cell-based, Streptococcus agalactiae
[4] = system: Branhamella catarrhalis (brca); test: Example 3: colony color on chromogenic TSA II with 5% sheep blood (chromogen in medium); format: cell-based; conditions: brca 25238; CO2; 21 h
Candida albicans (caal) = test: as above; format: cell-based; conditions: for Colony Color: caal 10231, 24 h
[5] = system: Citrobacter freundii (cifr); test: as above; format: cell-based; conditions: for Colony Color: CO2, 21 h
E. faecium (enfu) = test: as above; format: cell-based; conditions: for Colony Color: enfu 49032, 21 h
[6] = system: E. coli (non-O157) (esco); format: cell-based
[7] = system: Klebsiella pneumoniae (klpn); test: Example 3: colony color on chromogenic TSA II with 5% sheep blood (chromogen in medium); format: cell-based; conditions: CO2, 21 h
[8] = system: Pseudomonas aeruginosa (psae); test: as above; format: cell-based; conditions: for Colony Color: CO2, 21 h
Salmonella spp. (sasp) = format: cell-based
[9] = system: Serratia marcescens (sema); test: Example 3: colony color on chromogenic TSA II with 5% sheep blood (chromogen in medium); format: cell-based
[10] = system: Streptococcus agalactiae (stag); test: as above; format: cell-based
[11] = system: Staphylococcus aureus (stau); test: as above; format: cell-based
[12] = system: Staphylococcus Coag Neg (step); test: as above; format: cell-based; conditions: 21 h
S. pneumoniae (stpn) = test: as above; format: cell-based
S pyogenes (stpy) = test: as above; format: cell-based; conditions: for Colony Color: 21 h
[13] = Precipitate of chromogen on pre-plated media; format: physicochemical; conditions: 50 μl DMSO solution on pre-plated media
Protocol: 50 μl of each chromogen solution was added to the surface of each of the following pre-plated media (one chromogen solution per plate):
The solution was dispersed using a spreader and allowed to dry 3-4 hours in a hood.

cakr 34135 = test: Example 3: colony color on chromogenic TSA II with 5% sheep blood (chromogen in medium); format: cell-based; conditions: CO2, 21 h
[14] = chromogenic TSA II with 5% Sheep Blood, 0.1 g/l, 2 strains tested
[15] = chromogenic TSA II with 5% Sheep Blood, 0.1 g/l, 1 strain tested
[16] = chromogenic TSA II with 5% Sheep Blood, 0.1 g/l

## O=P(O)(O)Oc1c[nH]c2cc(Cl)c(Br)cc12 [Mag-Phos, 5-Br-6-Cl-3-indolyl-phosphate, p-touidine salt]
Escherichia coli 25922; Choc II
  Color: purple
Escherichia coli 25922; Summary of Table I
  Substrates Producing Color: Mag-phos
Escherichia coli 25922; TSA II 5SB
  Color: purple
Escherichia coli 25922; TSA Plain
  Color: purple
[1]; Summary of Table I, S. pneumoniae 6303
  Substrates Producing Growth Inhibition: Mag-phos
[1]; TSA II 5SB, S. pneu: 6303
  Growth: <
[2]; Summary of Table I, B. catarrhalis 25238
  Substrates Producing Growth Inhibition: Mag-Phos
[2]; TSA II 5SB, B. catt 25258
  Growth: <<
[3]
  Substrates Producing Growth Inhibition: Mag-phos
E. coli 25922
  Colony Color: purple (m)
S. agalactiae 12386
  Colony Color: purple (m)
[4]
  Colony Color: 0
Candida albicans (caal); CO2
  Colony Color: 0
Candida albicans (caal); air
  Colony Color: 0
Candida albicans (caal); [14]
  Colony Color (Summary): 0
[5]; [14]
  Colony Color (Summary): 0
[5]; cifr 8454
  Colony Color: 0
[5]; cifr 33128
  Colony Color: 0
E. faecium (enfu); [15]
  Colony Color (Summary): +
E. faecium (enfu); CO2
  Colony Color: vlgp
E. faecium (enfu); air
  Colony Color: lgp
[6]
  Colony Color: lp and lgb and 0
[7]; klpn 13883
  Colony Color: 0
[7]; klpn 33606
  Colony Color: 0
[8]; chromogenic TSA II with 5% Sheep Blood, 0.1 g/l, 3 strains tested
  Colony Color (Summary): 0
[8]; psae 9027
  Colony Color: 0
[8]; psae 15442
  Colony Color: 0
[8]; psae 33607
  Colony Color: 0
Salmonella spp. (sasp)
  Colony Color (Summary): +
[9]; [15]
  Colony Color (Summary): 0
[9]; sema 13880, CO2, 21 h
  Colony Color: 0
[10]
  Colony Color: lp
  Colony Color (Summary): +
[11]; stau 1006, CO2, 21 h
  Colony Color: 0
[11]; stau 1007, CO2, 21 h
  Colony Color: 0
[11]; stau 1008, CO2, 21 h
  Colony Color: vlp
[11]; stau 1009, CO2, 21 h
  Colony Color: vlp
[11]; stau 25923, CO2, 24 h
  Colony Color: lp
[11]; stau 25923, air, 24 h
  Colony Color: lp
[12]; step 12228, CO2
  Colony Color: 0
[12]; step 12228, air
  Colony Color: lp
[12]; step cdc1, CO2
  Colony Color: lp
[12]; step cdc1, air
  Colony Color: lp
[12]; step cdc2, CO2
  Colony Color: 0
[12]; step cdc2, air
  Colony Color: 0
[12]; step cdc3, CO2
  Colony Color: 0
[12]; step cdc3, air
  Colony Color: 0
[12]; step cdc4, CO2
  Colony Color: lp
[12]; step cdc4, air
  Colony Color: lp
S. pneumoniae (stpn); [16]
  Growth vs. control: <growth
S. pneumoniae (stpn); chromogenic TSA II with 5% Sheep Blood, 0.1 g/l, 6 strains tested
  Colony Color (Summary): 0,
S. pneumoniae (stpn); stpn 1259, CO2, 21 h
  Colony Color: 0
S. pneumoniae (stpn); stpn 1260, CO2, 21 h
  Colony Color: 0
S. pneumoniae (stpn); stpn 1628, CO2, 21 h
  Colony Color: 0
S. pneumoniae (stpn); stpn 6303, CO2, 24 h
  Colony Color: 0
S. pneumoniae (stpn); stpn 6303, air, 24 h
  Colony Color: db
S. pneumoniae (stpn); stpn 6305, CO2, 24 h
  Colony Color: 0
S. pneumoniae (stpn); stpn 6305, air, 24 h
  Colony Color: 0
S pyogenes (stpy); [16]
  Growth vs. control: <grth
S pyogenes (stpy); stpy 1027, CO2
  Colony Color: vlp
S pyogenes (stpy); stpy 1028, CO2
  Colony Color: vlp
S pyogenes (stpy); stpy 1029, CO2
  Colony Color: vlp
S pyogenes (stpy); stpy 1030, CO2
  Colony Color: vlp
S pyogenes (stpy); stpy 19615, CO2
  Colony Color: lp
S pyogenes (stpy); stpy 19615, air
  Colony Color: lp
S pyogenes (stpy); stpy 49117, CO2
  Colony Color: lp
S pyogenes (stpy); stpy 51339, CO2
  Colony Color: lp
[13]
  Precipitate when spread / placed on the plated media: somewhat insoluble
Cakr 34135
  Colony Color: lgp
